# In patent publication US12226379B2, “Highly sustainable compositions for modulation of gene expression in human skin, and methods of production thereof” (Visolis Technologies, Inc., priority 2022, dated 2025):
# How the values were obtained:
# Format in all cases: cell-based
# [1] = system: normal human epidermal keratinocytes (NHEKs) cells; assay: Hyaluronic acid level in medium (ELISA, normalized to protein level); conditions: FIG. 15; for increase in hyaluronic acid levels: 48 hours, p<0.05
# Protocol: Impact of MVL on hyaluronic acid, was conducted on keratinocytes. Hyaluronic acid is a crucial component of the skin. Impact of MVL on conversion of hyaluronic acid was evaluated. Hyaluronic acid tests were conducted on normal human epidermal keratinocytes (NHEKs) cells. Test samples contained 0-0.25% of highly sustainable, high-purity MVL by weight in a phosphate-buffered saline (PBS) solution. Negative control samples contained PBS only. Hyaluronic acid level in the medium was subsequently measured at 24 hours and 48 hours via ELISA and normalized to the protein level in the NHEK cells.
# [2] = system: EpiSkin-LM 3-dimensional in-vitro human skin model; assay: Gene expression test (DNA microarray, mRNA) on the EpiSkin-LM reconstructed 3D skin model
# Protocol: Gene expression tests were conducted on EpiSkin-LM™, a commercially available 3-dimensional in-vitro human skin model composed of normal human skin cells in a collagen matrix. Test samples contained either 0.5% or 1.0% of highly sustainable, high-purity MVL by weight in a phosphate-buffered saline (PBS) solution. Negative control samples contained PBS only.
# Reconstructed 3D skin epidermal models (EpiSkin-LM™) were pre-incubated with 5 mL of maintenance medium for 24 hours per manufacturer instruction. 2 mL of the test samples or negative controls were applied on the top of the epidermis. The treated models were incubated for 24 hours. After incubation, the models were rinsed with PBS, then treated again with 2 mL test samples or the negative control and incubated an additional 24 hours.
# After the second incubation, mRNA was extracted from the models by miRNeasy® Mini Kit (QIAGEN). mRNA expression level in the model was measured by a Genopal® DNA microarray chip. Modulation of gene expression level was expressed as the ratio of mRNA transcripts in the test-sample treated models to mRNA transcripts in the negative control models. Positive numbers indicated an increase in gene expression, and negative numbers indicated a decrease in gene expression relative to the negative control.
# [3] = system: normal human epidermal keratinocytes cells; assay: Cortisol production test (conversion of cortisone to cortisol, Alpha LISA); conditions: FIG. 13
# Protocol: Impact of MVL on metabolism, specifically cortisol production, was conducted on keratinocytes. Generally, 11β-HSD1 (Hydroxysteroid Dehydrogenase Type 1) converts costisone to cortisol, which then induces stress response. Impact of MVL on conversion of cortisone to cortisol was evaluated. Cortisol production tests were conducted on normal human epidermal keratinocytes cells. […] Negative control samples contained PBS only. Cortisol production was subsequently measured via the Alpha LISA system.
# [4] = compositions containing 0.1 to 1.0 weight percent, human epithelial cells
smiles,measurement,setting,value
"C[C@@]1(O)CCOC(=O)C1 [MVL, R-mevalonolactone]",increase in hyaluronic acid levels,[1]; 0.13% concentration,over 5%
same,hyaluronic acid levels,"[1]; 0.13-0.25% by weight, higher concentrations give higher hyaluronic acid levels",potently modulates
same,increase in hyaluronic acid levels,[1]; 0.25% concentration,over 5%
same,"decrease in gene expression level relative to negative control (MMP1, MMP2, MMP3, MMP7, MMP9, NFATC1, IL1A, IL1B, TNFA, SELE, SELL, EDN1, EDN2, EDN3, PTGS2 (COX2), POMC)","[2]; 1.0% by weight in PBS, two 24 h treatments, genes of extracellular matrix degradation, inflammation, skin pigmentation (FIGS. 6-8)",at least 10%
same,"decrease in expression of genes related to ECM degradation, inflammation and pigmentation",[2]; [4],at least 10%
same,"increase in expression of genes related to epithelial turnover, hyaluronic acid synthesis, barrier function and anti-aging elasticity",[2]; [4],at least 10%
same,conversion of cortisone to cortisol,"[3]; 0.125-0.5% by weight, higher concentrations give larger decline in cortisol levels",potently modulates
same,reduction of cortisol production,[3]; 0.5% concentration in PBS with cortisone,over 15%
